Measurements reported in patent US20170239283A1, “USE OF STING AGONISTS TO TREAT VIRALLY-INDUCED AND PRE-MALIGNANT GROWTHS” (Providence Health & Services - Oregon, priority 2016, published 2017).

What was measured:
[1] = test system: Murine bone marrow-derived macrophages; assay: M1/M2 differentiation of macrophages, Western blotting for iNOS and arginase I; type: cell-based; settings: 24 hours treatment, then IFNγ (20 ng/ml) or IL-4 (20 ng/ml)
Description: FIG. 5 is a digital image of a Western blot for iNOS, Arginase I, and GAPDH in murine bone marrow-derived macrophages treated with compounds targeting TLR4 (LPS), STING (CDA), NOD2 (PGNECndss), TLR7 (Imiquimod), TLR9 (class A CpG), or RIGI (ppp5′dsRNA), then treated with IFNγ (20 ng/ml) or IL-4 (20 ng/ml).
Murine bone marrow-derived macrophages were treated for 24 hours with a range of immunological adjuvants targeting STING (CDA), NOD2 (PGNECndss), TLR7 (imiquimod), TLR9 (class A CpG), or RIGI (ppp5′dsRNA), then treated with IFNγ (20ng/ml) or IL-4 (20ng/ml) to direct M1 or M2 differentiation, respectively. Ligation of TLR4 (LPS) was a positive control. M1 differentiation was distinguished by expression of iNOS, and M2 differentiation by expression of arginase I as measured by Western blotting.

[2] = test system: papilloma; assay: CD3+ T cell infiltration and histology of treated papilloma; type: in vivo, mice; settings: for infiltrating CD3+ T cells in papilloma: 24 hours after injection of 25 μg
Description: FIGS. 4A-C are a series of digital images showing infiltration of T cells following treatment with STING ligand. […] Sections were stained for CD3 and DAPI nuclear counterstain. […] Both papilloma sites were harvested 24 hours later and stained for CD3 and DAPI nuclear counterstain on the i) treated and ii) untreated opposite side papilloma.
To investigate the effect of treatment on T cell infiltration, which we and others have shown play a role in clearance of advanced cancers following administration of STING ligands (Baird et al., Cancer Res. 76:50-61, 2016; Corrales et al., Cell Rep. 11:1018-1030, 2015), papilloma were stained for infiltrating CD3^+ T cells.

[3] = test system: papilloma; type: in vivo, mice; settings: for papilloma size: larger 3-15 mm papilloma, 25 μg injected on d0, d1, d7 and d8
From the text: Pdx-Cre^+/− (Stock190 014647, Jackson Laboratories, Bar Harbor, Me.), Kras^(G12D)+/− (Stock#008179, Jackson Laboratories), and Trp53^(R172H)+/− (Stock#01XM2, NCI Fredrick Mouse Repository) mice were crossed to generate Pdx-Cre^+/− Kras ^(G12D)+/− Trp53^(R172H)+/− that generate pancreatic tumors (Hingorani et al., Cancer Cell 7:469-483, 2005). At variable penetrance, mice develop papilloma of the face and anogenital region (Hingorani et al., Cancer Cell 7:469-483, 2005; Gades et al., Comp. Med. 58:271-275, 2008). Mice bearing papilloma with no evidence of pancreatic tumors and less than 90 days of age were accrued to this study. Masses were treated by injection of 25 μg of c-di-CDG (Invivogen, San Diego, Calif., Catalog No. tlrl-naldg), Imiquimod (Invivogen) or PBS vehicle.
STING ligands were administered into the papilloma by direct injection with a total dose of 25 μg administered in a 25 μl injection volume. In the control case, 25 μg of Imiquimod was administered using the same technique. For larger papillomas, the injection was split between different sites within the same growth. The total dose to the growth remained 25 μg in each case. The animals were retreated on day 7 with a second cycle of injections.
Rapid alterations in small papilloma to resemble normal skin were observed within 18 hours of treatment (FIGS. 2A and B). In pilot studies, mice bearing papilloma were randomly assigned to treatment with the STING ligand c-di-GMP (CDG) or PBS vehicle control. In an example of a mouse with two small papilloma on the face, one was treated by direct injection of CDG, and the other given vehicle control (FIG. 2A, left). The CDG-injected papilloma rapidly reverted to normal skin within 18 hours (FIG. 2A, right). […] Injection of STING ligand into histologically normal skin at distant sites or in normal mice had no observable effect (not shown).
In addition, very large papilloma was treated with two cycles of treatment separated by 1 week, resulting in dramatic tumor regression (FIG. 3A). […] We tested treatment of larger, 3-15 mm papilloma with STING ligands. […] Therefore, we developed a treatment course consisting of injections on d0 and d1, and again on d7 and d8 as the papilloma decreased in size (FIG. 3B). Mice were randomized to receive CDG, to conventional treatment with the TLR7 ligand imiquimod, or PBS vehicle.

[4] = test system: cervical dysplasia; settings: added to excisional therapies, randomized clinical trials; cited from earlier work

Molecule | M1 (iNOS) / M2 (arginase I) differentiation of macrophages [1] | infiltrating CD3+ T cells in papilloma [2] | papilloma size [3] | rate of recurrence of cervical dysplasia [4] | also measured
Nc1ncnc2c1ncn2[C@@H]1O[C@@H]2COP(=O)(O)O[C@H]3[C@@H](O)[C@H](n4cnc5c(N)ncnc54)O[C@@H]3COP(=O)(O)O[C@H]2[C@H]1O [CDA, cyclic diadenylate monophosphate] | prevented M2 differentiation by IL-4 without driving M1 differentiation | – | – | – | –
Nc1nc2c(ncn2[C@@H]2O[C@@H]3COP(=O)(O)O[C@H]4[C@@H](O)[C@H](n5cnc6c(=O)[nH]c(N)nc65)O[C@@H]4COP(=O)(O)O[C@H]3[C@H]2O)c(=O)[nH]1 [CDG, cyclic diguanylate monophosphate] | – | CD3^+ T cells were found associated with the normalized skin epithelium | significantly decreased papilloma size | – | T cells in normalized skin ([2]; 14 days following treatment): enriched in the normalized skin; T cell infiltration in treated versus untreated papilloma of the same mouse ([2]; mice with more than one papilloma, one treated, 24 hours): T cell infiltration and control only in the treated papilloma; toxicity ([3]; 25 μg direct injection): non-toxic at these doses; effect of a single injection on larger papilloma ([3]; 3-15 mm papilloma, single injection): rapid loss of papilloma around the injection site, but these did not fully regress; appearance of injection site ([3]; 18 hours after injection into small papilloma): slight reddening; complete regression of papilloma ([3]; larger papilloma, injections on d0, d1, d7 and d8): complete regression of some papilloma; time for injected small papilloma to revert to normal skin ([3]; mouse with two small papilloma on the face, direct injection of 25 μg): ≤ 18 h; regression of experimental papilloma ([3]; small papilloma, direct injection of 25 μg): rapid, site-specific regression of experimental papilloma
CC(C)Cn1cnc2c(N)nc3ccccc3c21 [imiquimod] | can drive macrophages into either M1 or M2 differentiation | Few to no T cells were detected | did not significantly affect the size of the papilloma | neither approach impacts the rate of recurrence | –
interferon alpha | – | – | – | neither approach impacts the rate of recurrence | –
